Results taken from PubChem BioAssay AID272 (DTP/NCI, 2004).
Several values for one entry are separate records, joined by “and”; a condition that tells them apart may be missing. Equal entries are not always repeated. Records with an inconclusive call do not appear.

Tested on: Lewis lung carcinoma i.m., BDF1 mice, T/C %
Assay: NCI In Vivo Anticancer Drug Screen. Data for tumor model Lewis Lung Carcinoma (intramuscular) in B6D2F1 (BDF1) mice
Procedure: The antitumor activity of compounds was measured in mice bearing transplantable tumors. Survival or tumor size were measured and the results are expressed as the measurement made in the treated group (T) divided by the measurement made in the vehicle treated control group (C). The tumor model used in this assay is Lewis Lung Carcinoma (intramuscular) in B6D2F1 (BDF1) mice

[1] = endpoint: median survival time, dose: 3.12 mg/kg/injection, schedule: Q01DX011 (ip), vehicle: saline, higher = longer survival
[2] = endpoint: median survival time, dose: 6.25 mg/kg/injection, schedule: Q01DX011 (ip), vehicle: saline, higher = longer survival
[3] = endpoint: median survival time, dose: 12.5 mg/kg/injection, schedule: Q01DX011 (ip), vehicle: saline, higher = longer survival
[4] = endpoint: median survival time, dose: 25.0 mg/kg/injection, schedule: Q01DX011 (ip), vehicle: saline, higher = longer survival
[5] = endpoint: median survival time, dose: 10.0 mg/kg/injection, schedule: Q01DX011 (ip), vehicle: saline with Tween-80, higher = longer survival

CSc1ncnc2nc[nH]c12
T/C (endpoint: mean tumor weight (est.), dose: 1.56 mg/kg/injection, schedule: Q01DX011 (ip), vehicle: saline, higher = larger tumour): 79 % of control
T/C (endpoint: mean tumor weight (est.), dose: 3.12 mg/kg/injection, schedule: Q01DX011 (ip), vehicle: saline, higher = larger tumour): 79 % of control
T/C (endpoint: mean tumor weight (est.), dose: 6.25 mg/kg/injection, schedule: Q01DX011 (ip), vehicle: saline, higher = larger tumour): 85 % of control
T/C (endpoint: mean tumor weight (est.), dose: 12.5 mg/kg/injection, schedule: Q01DX011 (ip), vehicle: saline, higher = larger tumour): 78 % of control
T/C (endpoint: mean tumor weight (est.), dose: 25.0 mg/kg/injection, schedule: Q01DX011 (ip), vehicle: saline, higher = larger tumour): 80 % of control
T/C (endpoint: mean tumor weight (est.), dose: 50.0 mg/kg/injection, schedule: Q01DX011 (ip), vehicle: saline, higher = larger tumour): 89 % of control
T/C (endpoint: mean tumor weight (est.), dose: 100.0 mg/kg/injection, schedule: Q01DX011 (ip), vehicle: saline, higher = larger tumour): 62 % of control
T/C (endpoint: mean tumor weight, dose: 3.12 mg/kg/injection, schedule: Q01DX011 (ip), vehicle: other, higher = larger tumour): 96 % of control
T/C (endpoint: mean tumor weight, dose: 6.25 mg/kg/injection, schedule: Q01DX011 (ip), vehicle: other, higher = larger tumour): 79 % of control
T/C (endpoint: mean tumor weight, dose: 12.5 mg/kg/injection, schedule: Q01DX011 (ip), vehicle: other, higher = larger tumour): 73 % of control
T/C (endpoint: median survival time, dose: 1.56 mg/kg/injection, schedule: Q01DX011 (ip), vehicle: other, higher = longer survival): 104 % of control
T/C (endpoint: median survival time, dose: 1.56 mg/kg/injection, schedule: Q01DX011 (ip), vehicle: saline, higher = longer survival): 92 % of control
T/C [1]: 92 % of control
T/C [2]: 90 % of control
T/C (endpoint: median survival time, dose: 12.5 mg/kg/injection, schedule: Q01DX011 (ip), vehicle: other, higher = longer survival): 93 % of control and 100 % of control
T/C [3]: 88 % of control
T/C [4]: 92 % of control
T/C (endpoint: median survival time, dose: 50.0 mg/kg/injection, schedule: Q01DX011 (ip), vehicle: other, higher = longer survival): 109 % of control
T/C (endpoint: median survival time, dose: 50.0 mg/kg/injection, schedule: Q01DX011 (ip), vehicle: saline, higher = longer survival): 90 % of control
T/C (endpoint: median survival time, dose: 100.0 mg/kg/injection, schedule: Q01DX011 (ip), vehicle: saline, higher = longer survival): 105 % of control

Cc1c[n+]2c3ccccc3c3ccccc3c2s1
T/C (endpoint: mean tumor weight, dose: 10.0 mg/kg/injection, schedule: Q01DX011 (ip), vehicle: saline, higher = larger tumour): 112 % of control
T/C [5]: 89 % of control

CC(C)S(=O)(=O)/C(Cl)=C(/Cl)C(Cl)=C(Cl)Cl
T/C (endpoint: mean tumor weight, dose: 25.0 mg/kg/injection, schedule: Q01DX011 (ip), vehicle: sodium bicarbonate, higher = larger tumour): 111 % of control
T/C (endpoint: mean tumor weight, dose: 50.0 mg/kg/injection, schedule: Q01DX011 (ip), vehicle: sodium bicarbonate, higher = larger tumour): 117 % of control
T/C (endpoint: mean tumor weight, dose: 100.0 mg/kg/injection, schedule: Q01DX011 (ip), vehicle: sodium bicarbonate, higher = larger tumour): 100 % of control
T/C (endpoint: median survival time, dose: 50.0 mg/kg/injection, schedule: Q01DX011 (ip), vehicle: sodium bicarbonate, higher = longer survival): 87 % of control

COc1ccc(OC)c(/C=C/c2ccnc3ccccc23)c1
T/C (endpoint: mean tumor weight (est.), dose: 50.0 mg/kg/injection, schedule: Q01DX011 (ip), vehicle: saline with Tween-80, higher = larger tumour): 84 % of control
T/C (endpoint: mean tumor weight (est.), dose: 100.0 mg/kg/injection, schedule: Q01DX011 (ip), vehicle: saline with Tween-80, higher = larger tumour): 75 % of control
T/C (endpoint: mean tumor weight (est.), dose: 400.0 mg/kg/injection, schedule: Q01DX011 (ip), vehicle: saline with Tween-80, higher = larger tumour): 77 % of control
T/C (endpoint: median survival time, dose: 50.0 mg/kg/injection, schedule: Q01DX011 (ip), vehicle: saline with Tween-80, higher = longer survival): 100 % of control
T/C (endpoint: median survival time, dose: 100.0 mg/kg/injection, schedule: Q01DX011 (ip), vehicle: saline with Tween-80, higher = longer survival): 102 % of control

O=NN(CCCl)C(=O)NC1CCCCC1
T/C (endpoint: mean tumor weight, dose: 23.0 mg/kg/injection, schedule: Q01DX001 (sc), vehicle: saline, higher = larger tumour): 61 % of control
T/C (endpoint: mean tumor weight, dose: 39.0 mg/kg/injection, schedule: Q01DX001 (sc), vehicle: saline, higher = larger tumour): 40 % of control
T/C (endpoint: mean tumor weight, dose: 65.0 mg/kg/injection, schedule: Q01DX001 (sc), vehicle: saline, higher = larger tumour): 30 % of control
T/C (endpoint: mean tumor weight, dose: 108.0 mg/kg/injection, schedule: Q01DX001 (sc), vehicle: saline, higher = larger tumour): 30 % of control
T/C (endpoint: median survival time, dose: 4.0 mg/kg/injection, schedule: Q01DX011 (ip), vehicle: saline + alcohol, higher = longer survival): 92 % of control
T/C (endpoint: median survival time, dose: 4.0 mg/kg/injection, schedule: Q01DX011 (ip), vehicle: saline with Tween-80, higher = longer survival): 105 % of control
T/C (endpoint: median survival time, dose: 8.0 mg/kg/injection, schedule: Q01DX011 (ip), vehicle: saline + alcohol, higher = longer survival): 92 % of control
T/C (endpoint: median survival time, dose: 14.0 mg/kg/injection, schedule: Q01DX001 (ip), vehicle: saline, higher = longer survival): 108 % of control
T/C (endpoint: median survival time, dose: 16.0 mg/kg/injection, schedule: Q01DX012 (ip), vehicle: saline + alcohol, higher = longer survival): 87 % of control
T/C (endpoint: median survival time, dose: 23.0 mg/kg/injection, schedule: Q01DX001 (ip), vehicle: saline, higher = longer survival): 121 % of control
T/C (endpoint: median survival time, dose: 23.0 mg/kg/injection, schedule: Q07DX003 (ip), vehicle: saline, higher = longer survival): 87 % of control
T/C (endpoint: median survival time, dose: 39.0 mg/kg/injection, schedule: Q01DX001 (sc), vehicle: saline, higher = longer survival): 185 % of control
T/C (endpoint: median survival time, dose: 39.0 mg/kg/injection, schedule: Q07DX003 (ip), vehicle: saline, higher = longer survival): 120 % of control
T/C (endpoint: median survival time, dose: 65.0 mg/kg/injection, schedule: Q01DX001 (ip), vehicle: saline, higher = longer survival): 34 % of control
T/C (endpoint: median survival time, dose: 65.0 mg/kg/injection, schedule: Q01DX001 (sc), vehicle: saline, higher = longer survival): 191 % of control
T/C (endpoint: median survival time, dose: 108.0 mg/kg/injection, schedule: Q01DX001 (ip), vehicle: saline, higher = longer survival): 25 % of control
T/C (endpoint: median survival time, dose: 108.0 mg/kg/injection, schedule: Q01DX001 (sc), vehicle: saline, higher = longer survival): 166 % of control

CO[C@H](C(=O)[C@@H](O)[C@@H](C)O)[C@@H]1Cc2cc3cc(OC4CC(OC5CC(O)C(O)C(C)O5)C(O)C(C)O4)c(C)c(O)c3c(O)c2C(=O)[C@H]1OC1CC(OC2CC(OC3CC(C)(O)C(O)C(C)O3)C(O)C(C)O2)C(O)C(C)O1 (some centres undefined)
T/C (endpoint: mean tumor weight, dose: 0.06 mg/kg/injection, schedule: Q01DX011 (ip), vehicle: water, higher = larger tumour): 89 % of control
T/C (endpoint: mean tumor weight, dose: 0.12 mg/kg/injection, schedule: Q01DX011 (ip), vehicle: water, higher = larger tumour): 107 % of control
T/C (endpoint: mean tumor weight, dose: 0.25 mg/kg/injection, schedule: Q01DX011 (ip), vehicle: water, higher = larger tumour): 111 % of control
T/C (endpoint: mean tumor weight, dose: 0.5 mg/kg/injection, schedule: Q01DX011 (ip), vehicle: water, higher = larger tumour): 66 % of control
T/C (endpoint: median survival time, dose: 0.12 mg/kg/injection, schedule: Q01DX011 (ip), vehicle: water, higher = longer survival): 108 % of control and 114 % of control
T/C (endpoint: median survival time, dose: 0.13 mg/kg/injection, schedule: Q01DX009 (ip), vehicle: water, higher = longer survival): 94 % of control and 104 % of control
T/C (endpoint: median survival time, dose: 0.25 mg/kg/injection, schedule: Q01DX009 (ip), vehicle: water, higher = longer survival): 97 % of control and 101 % of control
T/C (endpoint: median survival time, dose: 0.25 mg/kg/injection, schedule: Q01DX011 (ip), vehicle: water, higher = longer survival): 92 % of control and 109 % of control
T/C (endpoint: median survival time, dose: 0.5 mg/kg/injection, schedule: Q01DX009 (ip), vehicle: water, higher = longer survival): 95 % of control and 108 % of control
T/C (endpoint: median survival time, dose: 0.5 mg/kg/injection, schedule: Q01DX011 (ip), vehicle: water, higher = longer survival): 103 % of control and 114 % of control
T/C (endpoint: median survival time, dose: 1.0 mg/kg/injection, schedule: Q01DX009 (ip), vehicle: water, higher = longer survival): 111 % of control

O=[N+]([O-])O.[Ga]
T/C (endpoint: mean tumor weight, dose: 3.12 mg/kg/injection, schedule: Q01DX011 (ip), vehicle: saline, higher = larger tumour): 101 % of control
T/C (endpoint: mean tumor weight, dose: 6.25 mg/kg/injection, schedule: Q01DX011 (ip), vehicle: saline, higher = larger tumour): 104 % of control
T/C (endpoint: mean tumor weight, dose: 12.5 mg/kg/injection, schedule: Q01DX011 (ip), vehicle: saline, higher = larger tumour): 85 % of control
T/C (endpoint: mean tumor weight, dose: 25.0 mg/kg/injection, schedule: Q01DX011 (ip), vehicle: saline, higher = larger tumour): 84 % of control
T/C [1]: 102 % of control
T/C [2]: 97 % of control
T/C [3]: 106 % of control
T/C [4]: 93 % of control

Cc1c2c(cc3c1[nH]c1ccccc13)C(c1ccc(Cl)cc1)=NCC2
T/C (endpoint: mean tumor weight (est.), dose: 75.0 mg/kg/injection, schedule: Q01DX011 (ip), vehicle: saline with Tween-80, higher = larger tumour): 54 % of control
T/C (endpoint: mean tumor weight (est.), dose: 150.0 mg/kg/injection, schedule: Q01DX011 (ip), vehicle: saline with Tween-80, higher = larger tumour): 41 % of control
T/C (endpoint: mean tumor weight (est.), dose: 300.0 mg/kg/injection, schedule: Q01DX011 (ip), vehicle: saline with Tween-80, higher = larger tumour): 40 % of control
T/C (endpoint: median survival time, dose: 75.0 mg/kg/injection, schedule: Q01DX011 (ip), vehicle: saline with Tween-80, higher = longer survival): 100 % of control
T/C (endpoint: median survival time, dose: 150.0 mg/kg/injection, schedule: Q01DX011 (ip), vehicle: saline with Tween-80, higher = longer survival): 92 % of control
T/C (endpoint: median survival time, dose: 300.0 mg/kg/injection, schedule: Q01DX011 (ip), vehicle: saline with Tween-80, higher = longer survival): 111 % of control

NC(=O)c1cc(N2CC2)c([N+](=O)[O-])cc1[N+](=O)[O-]
T/C (endpoint: mean tumor weight, dose: 10.0 mg/kg/injection, schedule: Q01DX011 (ip), vehicle: saline with Tween-80, higher = larger tumour): 100 % of control
T/C (endpoint: mean tumor weight, dose: 20.0 mg/kg/injection, schedule: Q01DX011 (ip), vehicle: saline with Tween-80, higher = larger tumour): 52 % of control
T/C (endpoint: mean tumor weight, dose: 40.0 mg/kg/injection, schedule: Q01DX011 (ip), vehicle: saline with Tween-80, higher = larger tumour): 5 % of control
T/C [5]: 94 % of control
T/C (endpoint: median survival time, dose: 20.0 mg/kg/injection, schedule: Q01DX011 (ip), vehicle: saline with Tween-80, higher = longer survival): 116 % of control
T/C (endpoint: median survival time, dose: 40.0 mg/kg/injection, schedule: Q01DX011 (ip), vehicle: saline with Tween-80, higher = longer survival): 88 % of control
